Measured values taken from the supplement of paper PMC8967900.

Experiments:
Assay in all cases: selective drug sensitivity score (sDSS, relative to normal bone marrow) (sDSS (score)); higher = more potent and effective on the cell line relative to normal bone marrow cells
Details in all cases: 72 h
[1] = tested on: KARPAS-45
[2] = tested on: NALL-1
[3] = tested on: LC4-1
[4] = tested on: HAL-01
[5] = tested on: KOPN-8
[6] = tested on: COG-LL-332h
[7] = tested on: MHH-CALL-4
[8] = tested on: CCRF-HSB2
[9] = tested on: PF-382
[10] = tested on: KASUMI-2
[11] = tested on: MOLT-16
[12] = tested on: SEM cells
[13] = tested on: NALM-6
[14] = tested on: TMD5
[15] = tested on: RPMI-8402
[16] = tested on: SUP-B15
[17] = tested on: 697
[18] = tested on: COG-LL-402h
[19] = tested on: MHH-CALL-3
[20] = tested on: CCRF-CEM
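Further: ALL cell lines in 384-well plates, five doses spanning 10,000-fold, each plate scaled between vehicle and 100 µmol/L benzalkonium chloride controls, sDSS an adapted area-under-curve metric.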

Structure (SMILES)	selective drug sensitivity score [1]	selective drug sensitivity score [2]	selective drug sensitivity score [3]	selective drug sensitivity score [4]	selective drug sensitivity score [5]	selective drug sensitivity score [6]	selective drug sensitivity score [7]	selective drug sensitivity score [8]	selective drug sensitivity score [9]	selective drug sensitivity score [10]	selective drug sensitivity score [11]	selective drug sensitivity score [12]	selective drug sensitivity score [13]	selective drug sensitivity score [14]	selective drug sensitivity score [15]	selective drug sensitivity score [16]	selective drug sensitivity score [17]	selective drug sensitivity score [18]	selective drug sensitivity score [19]	selective drug sensitivity score [20]
C/C(=C\c1csc(C)n1)[C@@H]1C[C@@H]2O[C@]2(C)CCC[C@H](C)[C@H](O)[C@@H](C)C(=O)C(C)(C)[C@@H](O)CC(=O)N1 [Ixabepilone] (top concentration 1000 nM)	3.68	1.68	5.08	1.78	6.98	4.08	0.58	3.18	1.68	1.48	4.68	3.58	4.48	0.28	2.78	5.08	4.68	1.58	-0.42	3.08
Cn1cc(C[C@@H](N)C(=O)O)c2ccccc21 [1-methyl-D-tryptophan] (top concentration 5000 nM)	-0.62	-0.62	-0.62	0.58	1.18	-0.62	-0.62	-0.62	-0.62	0.38	-0.62	-0.32	-0.62	-0.62	-0.62	-0.62	-0.62	-0.62	1.48	-0.62
C=CC(=O)N1CCC(Oc2cc3c(Nc4ccc(Cl)c(Cl)c4F)ncnc3cc2OC)CC1 [Poziotinib] (top concentration 1000 nM)	-0.22	3.28	0.78	1.18	-0.22	1.48	0.68	3.68	-0.22	5.98	-0.22	3.88	-0.22	1.28	-0.22	2.98	-0.22	1.58	3.08	-0.22
C[C@@H](Oc1cc(-c2cnn(C3CCNCC3)c2)cnc1N)c1c(Cl)ccc(F)c1Cl [Crizotinib] (top concentration 1000 nM)	-0.24	-0.54	-0.54	-0.54	-0.54	2.76	-0.54	4.26	-0.54	-0.54	-0.54	-0.54	0.96	1.66	-0.54	3.86	-0.24	-0.54	-0.54	-0.54
N#CC(c1ccnc(OCc2ccc(CN3CCOCC3)cc2)n1)c1nc2ccccc2s1 (stereo not given) [Bentamapimod] (top concentration 10000 nM)	5.54	1.14	2.34	2.74	5.64	2.94	-0.46	4.04	3.84	-0.46	4.04	3.24	2.44	0.74	4.94	2.34	5.14	1.54	-0.46	3.94
CCCN(CCC)C(=O)C1=Cc2ccc(-c3ccc(C(=O)N4CCCC4)cc3)cc2N=C(N)C1 [Motolimod] (top concentration 10000 nM)	-3.48	-4.48	-3.58	-4.18	1.52	-3.18	-4.48	-3.48	-2.28	-4.48	-2.78	-3.38	-3.38	-3.48	-2.28	-3.58	-2.68	-4.48	-4.48	-3.38
COc1cc2ncnc(Nc3cccc(Cl)c3F)c2cc1OC(=O)N1CCN(C)C[C@H]1C [AZD3759] (top concentration 1000 nM)	-0.04	0.86	-0.04	-0.04	-0.04	-0.04	-0.04	-0.04	-0.04	-0.04	-0.04	-0.04	-0.04	0.06	-0.04	-0.04	-0.04	-0.04	-0.04	-0.04
Cc1c(F)cc(C(=O)NC2CC2)cc1-c1ccc(C(=O)NCC(C)(C)C)cn1 [Losmapimod] (top concentration 10000 nM)	-0.18	-0.18	3.32	-0.08	4.42	-0.18	-0.18	-0.08	0.02	-0.18	0.12	-0.18	0.82	-0.18	-0.18	0.42	2.72	0.42	-0.18	-0.18
CN(CC(=O)N(Cc1ccc(C2CCCCC2)cc1)c1ccc(C(=O)O)cc1)S(=O)(=O)c1c(F)c(F)c(F)c(F)c1F [SH-4-54] (top concentration 25000 nM)	-4.24	-6.84	-3.34	-6.34	-1.94	-0.04	-5.44	-5.04	-3.74	-2.84	-6.74	-6.14	-3.34	-5.94	-5.74	-5.94	-2.64	-2.14	-0.84	-4.54
